We go through one compound from PubChem BioAssay AID1347132.

The source made the active and inactive calls.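 The calls were made as follows: active = over 75% inhibition of phospholipid synthesis and over 75% inhibition of fatty acid synthesis; inactive = the rest.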

For the assay, the system named is animal cells, 32Pi/[3H]acetate lipid labeling, 3 h. The assay can be described thus: lipid synthesis blockade by radiolabel incorporation – cell-based, 32Pi and [3H]acetate labeling (AID 1347132).

Consider `CC(C)(C)c1cc(/C=C(\C#N)C(N)=S)cc(C(C)(C)C)c1O`, for which the outcome was inactive. Moreover, the result (listed dose 0.1 µM) was inactive. Also, the result (listed dose 0.3 µM) was inactive. The result (listed dose 1 µM) was inactive. Where the note is “listed dose 3 µM”, the result was inactive. Where the note is “listed dose 10 µM”, the result was active.
